Test results reported in patent US12031897B2, “Target-locking single-molecule nanoscopy” (Memorial Sloan Kettering Cancer Center, priority 2019, dated 2024).

How the values were obtained:
Nanog transcription site = assay: Nanog transcription bursting (MCP-mNeonGreen, NMG mESCs); assay type: cell-based, mouse
Excerpt: (§1) It is discovered that Pol II, Sox2 and Brd4 form foci at Nanog transcription sites, with nanoscale organization akin to Pou5f1—colocalization of Pol II with 3′UTR-tagged nascent RNA and resolvable separation of enhancer-associated regulatory factors (FIGS. 9A-9D).
If accumulated Brd4 at Nanog acts mainly as a Pol II pause-release factor, upon Brd4 inhibition a reduction in burst amplitude would be expected. […] Thus, beyond controlling Pol II pause-release, Brd4 regulates transcription bursting, exemplified by the striking correspondence between burst frequency and enhancer-associated Brd4 cluster size. Bursting kinetics cannot be captured by static end-point assays that provide information averaged over a population of cells (e.g. ChIP, NET-Seq etc).
Wide-Field Cell Imaging Experiments. Live cell imaging experiments (tdPCP-EGFP and MCP-mNeonGreen tracking). For time-lapse imaging, a z-stack of 11 frames at 1 frame/second was acquired, by stepping the sample along the z-axis using the nanopositioning stage (250 nm steps). The CCD data were analyzed using IDL 6.4 (ITTVIS). Maximum projection images were calculated for each stack, and the resulting 11 sec/frame movie was used to track the intensities of individual tdPCP-EGFP-tagged transcription sites. A particle tracking routine (Crocker and Grier, 1996) was used for finding the positions of the transcription site in each frame and linking them into a 2D trajectory. The intensity trace of tdPCP-EGFP at the transcription site was corrected for photo-bleaching using the time trace of tdPCP-EGFP in a nearby nuclear region. The auto-correlation function was calculated (for the tdPCP-EGFP fluctuation analysis), or the data were imported in Origin 8.5.0 (OriginLab) and the trace fitted to a single-exponential decay (for the transcription inhibition experiments).
NMG mESCs contain 24×MS2 cassettes integrated in the 3′-UTR of both Nanog alleles and also stably express MCP-mNeonGreen (Ochiai et al., 2014).

[1] = target: T1, Brd4 foci at the Nanog locus (Mus musculus, UniProt Q9ESU6); assay: Brd4 cluster signal at Nanog vs. [JQ1]; assay type: cell-based; details: mESCs
T1 construct: integrating a SNAP-tag at the N-terminus of the endogenous Brd4; endogenous in cells; host or cells: mouse ESCs NMG, NMG SNAP-Brd4 clone 7 (CRISPR knock-in, homozygous)
Protocol: as §1
For real-time confocal and STED imaging, example implementations may program the wave generator to scan 2 μm×2 μm or 1 μm×1 μm xy areas in 0.8 sec or 0.2 sec respectively. 3D scanning was performed (via, e.g., detection system 150) by acquiring 5 xy scans while moving the stage by 0.5 μm in z between scans. TTL pulses corresponding to single-photon events from the APDs, together with the trigger pulses from the wave generator were detected using a field-programmable gate array (FPGA) data acquisition system (National Instruments, PCIe-7852R).
Before imaging, cells were seeded onto 8-chamber coverglass (LabTek, 155411) coated with 5 μg/ml laminin (BioLamina LN511), in −2i media (OMG) or +2i media (NMG) and appropriate drugs. For SiR staining, cells were labeled with media containing 0.3 μM SiR-BG for 10 mins, at 37° C., followed by three washes with new media.
To generate OMG or NMG SNAP-Brd4 targeted cells, OMG-1 or NMG mESCs (1×106) were transfected with 10 μg SNAP-Brd4 donor vector and 0.6 μg espCas9-gRNA-Brd4 vector. […]

[2] = tested on: SiR-Rpb1 (Pol II) in the nucleus of U2-OS cells; assay: SiR-Rpb1 FRAP in the nucleus of clone 5 cells; assay type: cell-based, human; details: after ~30-40 minutes incubation with 10 μM Flavopiridol
Excerpt: Live cell imaging experiments (SiR-Rpb1 FRAP). For SiR-Rpb1 FRAP experiments, time lapse images were acquired at 1 fps at a focal point adjusted at the mid-plane of the nucleus. To bleach molecules at a spot in the nucleus, an iris was used to block all but a small circle in the center of the excitation beam, the dynamic diffuser was removed and ˜[…] 642 nm laser power was applied for ˜10 seconds. Then, the 642 nm laser power was reduced to ˜7 W/μm2, the diffuser was put back in the optical path (resulting in additional drop in the power reaching the sample), the iris was removed and time-lapse acquisition continued. The recovery trace of SiR-Rpb1 at the bleached spot was corrected for photobleaching using the intensity of nearby (non-photobleached) regions in the nucleus.
Quantification of signal (S) and immobile background (Bi) at the transcription site. […] This behavior reflects gradual photobleaching of Pol II molecules residing within the excitation volume during the measurement and a constant background of molecules rapidly diffusing in and out. […] The Bi/Bd ratio is also consistent with: (i) Fluorescence Recovery After Photobleaching (FRAP) measurements at random nuclear locations (FIGS. 11K, 11L), showing that ˜40% of total Pol II is immobile (recovery time ˜20 min) and likely transcriptionally engaged; (ii) previous GFP-Pol II FRAP results in a related system.

Compound	Nanog burst duration (Nanog transcription site; JQ1 titration)	Hill equation n, Nanog burst frequency vs. [JQ1] (Nanog transcription site; Nanog, mESCs)	Nanog burst amplitude (Nanog transcription site; at higher [JQ1])	Nanog burst frequency (Nanog transcription site; at low [JQ1])	Hill curve n, relative Brd4 signal at Nanog vs. [JQ1] [1]	slow-recovering immobile Pol II population (FRAP) ([2]; ~40% in absence of Flavopiridol)	fast FRAP recovery of SiR-Rpb1 ([2]; ~60% in absence)
Cc1sc2c(c1C)C(c1ccc(Cl)cc1)=N[C@@H](CC(=O)OC(C)(C)C)c1nnc(C)n1-2 [JQ1]	largely unaffected	0.9±0.3	modest reduction	dramatically reduced	1.0		
CN1CC[C@H](c2c(O)cc(O)c3c(=O)cc(-c4ccccc4Cl)oc23)[C@H](O)C1 [flavopiridol]						10-15%	85-90%
